Assay results from PubChem BioAssay AID435015 (The Scripps Research Institute Molecular Screening Center, 2010).
The source made the active and inactive calls. The rule behind the calls is not given here.

Test system: Vero E6 cytotoxicity, luminescence viability
Test: PubChem AID 435015
Conditions: at 20 µM; active compounds read high

## CC(C)(C)NC(=O)C(c1cccnc1)N(C(=O)c1ccco1)c1ccc(C(C)(C)C)cc1 (stereo unspecified)
  inhibition: 23% (inactive)
